Reference: patent US10246489B2, “Peptide inhibitors of calcium oxalate monohydrate crystallization and uses thereof” (UNIVERSITY OF HOUSTON, priority 2013, dated 2019)
Entries after “also recorded” stand apart in the source; their conditions may differ.

Experiments:
[1] = In situ calcium ion-selective electrode (ISE) measurement of COM crystallization; conditions: for percent reduction in COM growth rate: 20 μg/ml additive, supersaturated calcium oxalate S=5.4, stirred, ISE slope in first 40 min vs control; for increase in peptide efficacy on replacing L-Ala spacer with L-Asp binder (relative to peptide D7): ISE, 20 μg/ml, series D7, D8, D9
Protocol: The COM growth rate was measured as the slope (dCa/dt) of decreasing Ca^2+ concentration within the first 40 min of crystallization. […] The percent reduction in COM growth rate was calculated by comparing the ISE slopes of peptides and control using the formula, Percent Reduction=[1−(dCa/dt)peptide/(dCa/dt)control]×100%. Data are averages of 2 or 3 measurements (error bars equal two standard deviations);
COM crystals for bulk crystallization studies were synthesized using a reported procedure that produces micron-sized crystals with large basal (100) surfaces. COM crystals prepared with molar composition 0.7 mM CaCl2: 0.7 mM Na2C2O4: 150 mM NaCl are referred to as the control. Growth solutions prepared with peptides used 20 μg/ml of the additive (unless otherwise stated).
As such, measurements reported herein were conducted at a single peptide concentration (20 μg/ml) to assess COM growth inhibition. To facilitate comparison of peptides in Table 1, Applicants calculated the percent reduction in COM growth rate using the relative difference in ISE slopes (units of ppm Ca^2+ per time) for peptide and control samples during the first 40 min of crystallization.
The slope of ISE curves (FIG. 2A) is the temporal change in free Ca^2+ concentration due to COM nucleation (primary and secondary) and crystal growth. Deconvoluting these two processes (nucleation and growth) from ISE data is nontrivial, particularly if one wishes to extract detailed kinetic information of COM growth rates. […] In the current study, the distinct advantage of ISE compared to more traditional approaches is its ease of use and the rapid time for data acquisition that enables high-throughput analysis of large peptide libraries.
A quantitative comparison of peptide efficacy for inhibiting COM crystallization was performed using in situ ISE measurements. The percent inhibition in COM growth rate was calculated using the relative difference in ISE slopes in the presence of 20 μg/mL peptide. […] The effect of Asp with Glu in peptide sequences was measured on COM growth inhibition (Table 2).

[2] = Bulk crystallization studies of COM crystal size and habit (optical microscopy, SEM, AFM); conditions: for COM crystal habit / morphology: bulk crystallization with 20 μg/ml peptide
Protocol: FIGS. 4A-4B show macroscopic characterization of COM crystals from bulk crystallization in solutions of 0.5 mM CaC2O4 and 20 μg/ml peptide. Optical microscopy was used to measure: Percent distribution of elongated hexagonal platelet (shaded bars) and diamond platelet (pattern bars) crystal morphologies (FIG. 4A); and length of the COM (100) basal surface measured along the direction (i.e. apical tip-to-tip distance) for hexagonal and diamond morphologies (FIG. 4B). Data in (FIG. 4A) and (FIG. 4B) are the average of three separate crystallization experiments performed at 60° C. for 3 days (error bars equal one standard deviation). Data for peptide D4 (diamond habit) was omitted based on too few crystals for statistical analysis;
COM crystals for bulk crystallization studies were synthesized using a reported procedure that produces micron-sized crystals with large basal (100) surfaces. COM crystals prepared with molar composition 0.7 mM CaCl2: 0.7 mM Na2C2O4: 150 mM NaCl are referred to as the control. Growth solutions prepared with peptides used 20 μg/ml of the additive (unless otherwise stated). The crystals were characterized by optical microscopy using a Leica DM2500-M microscope, scanning electron microscope (SEM) using a FEI 235 Dual-Beam Focused Ion-beam instrument, atomic force microscopy (AFM) using an Asylum MFP-3D-SA instrument (Santa Barbara, Calif.), and a calcium ion-selective electrode (ISE, ThermoScientific).
ISE measurements can be used to screen peptide efficacy, but provide little information regarding the specificity of peptide binding to different surfaces of COM crystals. To this end, Applicants used a second analysis step to identify the effect of peptides on COM crystal size and habit. The influence of the peptide library on macroscopic properties of COM crystals was assessed using bulk crystallization studies and optical and scanning electron microscopy to characterize COM crystals grown in the presence of peptides. In vitro, COM crystallization yields elongated hexagonal platelets with {100} basal surfaces bounded by {010} and crystallographically equivalent {121} apical surfaces (FIG. 3A). […] Applicants observed that multiple peptides in the library reduced growth along the directions, which decreased the crystal aspect ratio (length-to-width) and shifted the morphology from hexagonal to diamond platelets. This change in crystal habit can be attributed to the preferential binding of peptides to COM {121} surfaces, which slows growth along the naturally fast growth directions within the (100) plane.
To more systematically assess the surface topography of COM crystals, Applicants used atomic force microscopy (AFM) to probe the effect of peptides on COM (100) surface roughness. Crystals extracted from control and peptide D5 batches were prepared on AFM sample disks and imaged in air. The RMS roughness for (100) surfaces of hexagonal-shaped crystals from the control and test peptide D5 were approximately 1.0 and 4.3 nm, respectively.
Crystal batches prepared in bulk studies were analyzed using optical microscopy to quantify changes in COM crystal size and aspect ratio. […] Although there were clear differences in the percent population of diamond-shaped crystals among peptides tested in this study, Applicants observed that the size of diamond crystals were generally the same, irrespective of peptide sequence (FIG. 4B). The majority of COM hexagonal platelets in peptide samples had similar size and aspect ratio as the control (here Applicants only report the length of COM crystals in FIG. 4B). A notable exception, however, was peptide D4, which produced a 22% increase in the length-to-width aspect ratio of COM hexagonal crystals, and an increase in the length from 35 μm (control) to 75 μm (peptide D4).

[3] = High-throughput colorimetric calcium depletion assay (crystallization half-time); conditions: 37° C., crystallization volume 600 μL, shaking; logistic fit
Protocol: Free calcium concentration in the crystallization solution was measured by a colorimetric assay using Quantichrome DICA 500 Calcium assay kit (BioAssay Systems, Hayward, Calif.). Standard solutions (0, 0.1, 0.2, 0.3, 0.4, 0.5, and 1 mM) were prepared using calcium solutions provided with the kit. Detection reagent was prepared by mixing equal volumes of reagent A and reagent B according to manufacturer's instructions. A 10 μL sample was withdrawn from the top of each crystallization well without disturbing the bottom and dispensed into a 96-well microplate. 100 μL of detection reagent was added to each well and incubated for 3 minutes at room temperature. The absorbance was measured at 612 nm using Biotek Synergy H4 microplate reader (BioTek, Winooski, Vt.). Calcium concentration was determined using a calibration curve prepared from standard calcium solutions.
Time course of depletion of free calcium in the crystallization solution, normalized to the initial concentration, was fitted to a nonlinear logistic function using OriginPro Software (Origin Lab, Northhampton, Mass.). The logistic function relating calcium concentration to time is given by
where [Ca]t is the normalized calcium concentration at time t, A1 is the normalized initial supersaturation concentration (i.e at t=0), A2 is the normalized equilibrium concentration (i.e. at t=∞), p is the hill coefficient which represents slope of the curve at midpoint, and t1/2 is the crystallization half-time (CHT), defined as the time at which crystallization is 50% complete (i.e. [Ca]t1/2=[…]). A1 was fixed at 1, and A2, p and t1/2 were obtained from fitting the data to equation 1. CHT was used as a measure of inhibition potentials of the peptides. A one-way ANOVA in combination with Tukey post hoc test at p<0.05 level was used to probe statistical significance. Applicants' studied the effects of experimental parameters including volume, shaking and temperature on crystallization in designing a high-throughput screening assay. Applicants have shown the logistic model effectively represents the three phases: induction, crystal growth and equilibrium observed in our setup, and CHT (t1/2) can be used as a measure of efficacy of potential crystal growth modifiers. The peptide library screened comprised of Asp and Ala residues (peptides D1-D13) at optimized assay conditions of 37° C., crystallization volume of 600 μL in a shaking environment. […] The high throughput of the assay provides the opportunity to assess the growth modulation potential of crystal growth modifiers at varying modifier concentrations, supersaturations and ionic strengths with relative ease. […] Finally, the assay can be translated to other crystallization systems in a relatively straightforward fashion for rational design and discovery of growth modifiers for specific applications.

[4] = Calcium ISE measurements of COM growth at room temperature, Glu-Ala peptide library
[5] = ISE slopes in the presence of 20 μg/mL peptide, comparison X = D vs X = E

Row | Substance | % inhibition [1, 5] [%] | CHT (hr), crystallization half-time [3] [h] | also measured
1 | A-E-A-A-A-E-E-A-A-A-E-A-A-A-E-E-A-A (AEAAAEEAAAEAAAEEAA; Synthesized Calcium oxalate monohydrate inhibitory polypeptide) [E5] | 36 ± 21 |  | % inhibition [1, 4]: 36 ± 21%
2 | A-E-A-A-E-A-A-A-E-A-A-E-E-A-A-E-A-A (AEAAEAAAEAAEEAAEAA; Synthesized Calcium oxalate monohydrate inhibitory polypeptide) [E6] | 52 ± 16 |  | % inhibition [1, 4]: 52 ± 16%; COM crystal habit / morphology ([2]; SEM): polydisperse distribution of crystals; also recorded: less effective than E7
3 | A-E-A-A-E-A-A-E-A-A-E-A-A-E-A-A-E-A (AEAAEAAEAAEAAEAAEA; Synthesized Calcium oxalate monohydrate inhibitory polypeptide) [E3] | 40 ± 18 |  | 
4 | A-E-A-A-E-E-A-A-A-A-A-A-E-A-A-E-A-A (AEAAEEAAAAAAEAAEAA; Synthesized Calcium oxalate monohydrate inhibitory polypeptide) [E7] |  |  | COM crystal habit / morphology ([2]; SEM): polydisperse distribution of crystals
5 | AADAAAAADDAAAADAAA (Synthesized Calcium oxalate monohydrate inhibitory polypeptide) [D2] |  | 3.533 | 
6 | ADAAADAADAADDAADAA (Synthesized Calcium oxalate monohydrate inhibitory polypeptide) [D3] |  | 4.142 | 
7 | ADAAADDAAAAAAAADAA (Synthesized Calcium oxalate monohydrate inhibitory polypeptide) [D7] |  | 5.771 | percent reduction in COM growth rate [1]: < 1%; [100] thickness of hexagonal platelets relative to control ([2]; SEM, 20 μg/ml peptide): decreased the [100] thickness of hexagonal platelets by nearly a factor of two
8 | ADAAADDAAADAAAADAA (Synthesized Calcium oxalate monohydrate inhibitory polypeptide) [D8] |  | 4.792 | percent reduction in COM growth rate [1]: ~6%; increase in peptide efficacy on replacing L-Ala spacer with L-Asp binder (relative to peptide D7) [1]: an order of magnitude increase in efficacy; percentage of diamond-shaped crystals in total crystal population ([2]; 20 μg/ml peptide, 60° C. for 3 days, optical microscopy, average of three experiments): largest populations of diamond-shaped crystals; population of diamond crystals on doubling peptide concentration ([2]; concentration increased from 20 to 40 μg/ml): did not observe an appreciable increase in the population of diamond crystals
9 | ADAAADDAAADAAADDAA (Synthesized Calcium oxalate monohydrate inhibitory polypeptide) [D9] | 36 ± 8 | 7.277 | percent reduction in COM growth rate [1]: 40%; increase in peptide efficacy on replacing L-Ala spacer with L-Asp binder (relative to peptide D7) [1]: ~70
10 | ADAAADDDAAADAAADDD (Synthesized Calcium oxalate monohydrate inhibitory polypeptide) [D6] |  | 5.041 | factor of increase of the [001] length of hexagonal COM crystals relative to the control ([2]; 20 μg/ml peptide): 1.5
11 | ADAADAAADAADDAADAA (Synthesized Calcium oxalate monohydrate inhibitory polypeptide) [D10] | 36 ± 5 | 6.054 | 
12 | ADAADDAAAAAADAADAA (Synthesized Calcium oxalate monohydrate inhibitory polypeptide) [D11] |  | 5.767 | COM crystal habit / morphology ([2]; SEM): large {121} surface area
13 | ADADADADADADADADAD (Synthesized Calcium oxalate monohydrate inhibitory polypeptide) [D13] |  | 8.114 | 
14 | ADDAADAADAADDAADDA (Synthesized Calcium oxalate monohydrate inhibitory polypeptide) [D12] |  | 7.135 | 
15 | DDDAAAAADDDAAAAADD (Synthesized Calcium oxalate monohydrate inhibitory polypeptide) [D1] |  | 6.482 | factor of increase of the [001] length of hexagonal COM crystals relative to the control ([2]; 20 μg/ml peptide): 2.0; COM crystal habit / morphology ([2]; SEM): small {121} surface area
